Data from patent US10689374B1, “Pyrimidine-thiazolidinone derivatives” (UNITED ARAB EMIRATES UNIVERSITY, priority 2019, dated 2020).
“Also recorded” adds a separate entry of the source. Counter-ions that a name gives are not always drawn.

Columns and labels:
[1] = test system: β TC6 cells; test: In vitro glucose uptake assay; type: cell-based; conditions: each compound at a concentration of 10 μM
Method: FIG. 5A is a bar graph comparing the results of pioglitazone with compounds 130a-g, each at a concentration of 10 μM, for effect on glucose uptake from β TC6 cells.
FIG. 5B is a bar graph comparing the results of pioglitazone with compounds 112, 105a-d, 121, 117, 119, and 126, each at a concentration of 10 μM, for effect on glucose uptake from β TC6 cells.
FIG. 5C is a bar graph comparing the results of metformin with compound 138, each at a concentration of 10 μM, for effect on glucose uptake from β TC6 cells.
The results of the in vitro glucose uptake study are depicted in FIGS. 5A-5C.

[2] = test system: βTC6 cells; test: Insulin secretion from βTC6 cells (high range insulin Sandwich ELISA kit); type: cell-based; conditions: compounds at 10^−12, 10^−9, 10^−6 M; for basal insulin secretion: absence of glucose; for glucose stimulated insulin release: presence of 2.8 mM glucose
Method: Secretion of insulin by βTC6 cells was measured using the high range insulin Sandwich ELISA kit.
Similarly, a variety of thiazolidinedione-2,4-dione-pyrimidine derivatives, at 10^−12, 10^−9, 10^−6 M concentrations, were investigated for their effect on insulin secretion in the absence and presence of 2.8 mM glucose from βTC6 cells. […] These compounds also increase insulin secretion in the presence of glucose and, thereby, prevent hyperglycemia.
The effects of rhodanine-pyrimidine derivatives 130a-g were also investigated at 10^−12, 10^−9, 10^−6 M concentrations, for effect on insulin secretion in absence and presence of 2.8 mM glucose in βTC6 cells.

Row | Structure (SMILES) | glucose uptake [1] | basal insulin secretion [2] | glucose stimulated insulin release [2]
1 | Nc1nccc(NS(=O)(=O)c2ccc(/C=C3/SC(=O)NC3=O)cc2)n1 [Compound 105c] | most potent activity | no effect | significantly increased
2 | C/N=C1/NC(=O)/C(=C\c2ccc(S(=O)(=O)Nc3ccnc(N)n3)cc2)S1 [Compound 105b] | most potent activity | significant decrease | significant increase
3 | O=C(O)CN1C(=O)/C(=C/c2cnc(N3CCOCC3)nc2)SC1=S [Compound 130e] | most potent activity | significant increases | significant increases
4 | Nc1ncc(/C=C2\SC(=S)NC2=O)cn1 [Compound 130b, (Z)-5-[(2′-Aminopyrimidin-5′-yl)methylene]-2-thioxothiazolidin-4-one] |  | significantly increased | 
5 | Nc1nccc(NC(=O)CC2SC(=O)NC2=O)n1 (stereo not shown) [Compound 117, N-(2′-Aminopyrimidin-4′-yl)-2-(2″,4″-dioxothiazolidin-5″-yl)acetamide] | most potent activity | significantly inhibited | 
6 | CN(C)c1ncc(/C=C2\SC(=S)NC2=O)cn1 [Compound 130a] |  | did not show any effect | did not show any effect
7 | CCCNc1ncc(/C=C2\SC(=S)N(CC(=O)O)C2=O)cn1 [Compound 130f] | most potent activity | significant increases | significant increases
8 | Cc1cc(O)nc(NC(=O)CN2C(=O)/C(=C\c3ccc(F)cc3)SC2=S)n1 [Compound 126, (E)-2-[5′-(p-Fluorobenzylidene)-4′-oxo-2′-thioxothiazolidin-3′-yl]-N-(4″-hydroxy-6″-methyl-pyrimidin-2″-yl)acetamide] | enhancing the glucose uptake significantly (p<0.001) | significant decrease | significant increase
9 | CC(C)Nc1ncc(/C=C2\SC(=S)N(CC(=O)O)C2=O)cn1 [Compound 130d] |  | did not show any effect | did not show any effect
10 | CN=C1NC(=O)/C(=C\c2ccc(S(=O)(=O)[n+]3ccccc3)cc2)S1 [Compound 105a, 2-(Methylimino)-5-[4′-(N-pyridinesulfonyl)benzylidine]thiazolidin-4-one chloride salt] | most potent activity | significant decrease | significant increase
11 | O=C(O)CN1C(=O)/C(=C/c2cnc(NCc3ccccc3)nc2)SC1=S [Compound 130g, (Z)-2-{5′-[2″-(Benzylamino)pyrimidin-5″-yl]methylene-4′-oxo-2′-thioxothiazolidin-3′-yl}acetic acid] | most potent activity; also recorded: enhancing the glucose uptake significantly (p<0.001) |  | significantly increased
12 | CN=C1NC(=O)/C(=C\c2cnc(Nc3cccc4ccccc34)nc2)S1 [Compound 112] | most potent activity |  | 
13 | CN(C)c1ncc(/C=C2\SC(=S)N(CC(=O)O)C2=O)cn1 [Compound 130c] |  |  | significantly increased
14 | Cc1ccc(S(=O)(=O)NC(=O)Nc2nccc(NC(=O)CC3SC(=O)NC3=O)n2)cc1 (stereo not shown) [Compound 119, 2-(2′,4′-Dioxothiazolidin-5-yl)-N-[2″-(p-tosylureido)pyrimidin-4″-yl]acetamide] | most potent activity | significantly increased | 
